# Results taken from patent US20060089410A1, “Combination of chemotherapeutic drugs for increasing antitumor activity” (Titan Pharmaceuticals, Inc., priority 2002, published 2006).
# Where a name gives a salt, the structure may show the parent alone. Read-outs that look alike come from different tables or passages of the source.
# Legend:
# H522 NSCLC cell line = test: MTS growth inhibition assay, sequencing of Pivanex and docetaxel, H522; assay type: cell-based, human; settings: after 24 hour exposure
# Method: Human Non-Small Cell Lung Carcinoma Cell Lines, H522 and NCI-H23, were evaluated for growth inhibitory activity of Pivanex, alone and in combination with the standard chemotherapeutic agent, docetaxel. Cells were treated for three days with Pivanex followed by 24 hours of exposure to docetaxel or the cells were treated for 24 hours with docetaxel followed by three days of exposure to Pivanex. The cell growth inhibition was judged at the end of the 4-day experiments by a standard staining technique using MTS tetrazolium vital stain. […]
# Exponentially growing cells were harvested with trypsin (0.05%)/EDTA (0.02%) and re-suspended in fresh medium containing 10% FBS. […] Absorbance was documented on a Dynex HD microplate reader at a wavelength of 490 nm. IC50 values were determined by using the Prism® GraphPad software from 3 different tests, each of which involved 4 replicates for each dose determination. The data are presented as percent growth inhibition, where 0% represents the mean value in wells to which only vehicle (0.1% DMSO) was added and was calculated as follows: % Growth Inhibition=(1−(ODtest/ODvehicle))×100 where ODtest is the optical density of the tested sample, OD vehicle is the optical density of the vehicle in which each respected drug is dissolved. […]
# [1] = test system: H23 (NCI-H23) NSCLC cell line; test: MTS growth inhibition assay, sequencing of Pivanex and docetaxel, H23; assay type: cell-based, human; settings: after 24 hour exposure
# [2] = test system: Calu-6 anaplastic lung carcinoma cells; test: Crystal violet microtiter assay, Pivanex then cytotoxic drug, Calu-6; assay type: cell-based; settings: Pivanex 0 μM
# Method: (§1) T24 Bladder transitional carcinoma cells, Calu-6 anaplastic lung carcinoma cells, and SK-MES-1 squamous lung cell carcinoma cell cultures were purchased from the American Type Culture Collection (Manassas, Va.). All cell lines were cultured in RPMI-1640 with 10% fetal calf serum. For culture in microtiter dishes, cells were plated at a density of 10^4 cells/well and incubated at 37° C., 5% CO2 overnight.
# (§2) After overnight incubation, drugs were added to wells in quadruplicate and incubated for 6 to 96 hours in the presence or absence of the oxyalkylene containing compound. […] the media was removed, fresh media were added with cytotoxic drug, and the cultures were incubated for another 6 hours.
# (§3) The wells were then washed and medium without drug was added to each well. Microtiter plates were subsequently incubated for an additional 3 days before cell density was determined by a Crystal Violet Assay. Some cultures were alternatively fixed in methanol and stained with hematoxylin and eosin (H&E) stain for 5 minutes prior to microphotography.
# (§4) PIVANEX (pivaloyloxymethyl butyrate) was obtained from Titan Pharmaceuticals Inc. (South San Francisco, Calif.) and was admixed with 0.05% Intralipid™ (Fresenius Kabi, Clayton, N.C.) prior to addition to culture media. The cytotoxic drugs gemcitabine (Gemzar; Eli Lilly and Co., Indianapolis, Ind.), cisplatin (Platinol, Bristol-Myers Squibb Co., Princeton, N.J.), paclitaxel (Taxol; Bristol-Myers Squibb Co., Princeton, N.J.), and docetaxel (Taxotere, Aventis Pharmaceuticals Products, Inc., Bridgewater, N.J.) were studied with PIVANEX.
# (§5) Cells in microtiter wells were rinsed with PBS and fixed in two volumes of 100% cold methanol for 5 minutes. One volume of 0.5% crystal violet in 20% methanol was added and the attached cells stained for 10 minutes. The cells were then washed and crystal violet was eluted with 0.1 N sodium citrate buffer and read on an ELISA plate reader at 490 nm.
# [3] = test system: SK-MES-1 squamous lung cell carcinoma cell; test: Crystal violet microtiter assay, Pivanex then cytotoxic drug, SK-MES-1; assay type: cell-based; settings: Pivanex 0 μM
# Method: as §1, §2, §3, §4, §5
# [4] = test system: leukemic cells isolated from myelogenous leukemic patients; settings: in vitro
# [5] = test system: refractory acute myelogenous leukemia in relapse; settings: child, 0.5 g/kg/day; cited from earlier work
# [6] = cited from earlier work
# [7] = test system: T24 Bladder transitional carcinoma cells; test: Crystal violet microtiter assay, Pivanex then cytotoxic drug, T24; assay type: cell-based, human; settings: Pivanex 0 μM
# Method: as §1, §2, §3, §4, §5
compound,measurement,setting,value
"CC(=O)O[C@@]12CO[C@@H]1C[C@H](O)[C@@]1(C)C(=O)[C@H](O)C3=C(C)[C@@H](OC(=O)[C@H](O)[C@@H](NC(=O)OC(C)(C)C)c4ccccc4)C[C@@](O)([C@@H](OC(=O)c4ccccc4)[C@H]21)C3(C)C [Docetaxel, docetaxel]",cell growth with agent alone,H522 NSCLC cell line,steep increase in H522 cell growth
same,cell growth with agent alone,[1],steep increase in H23 cell growth
same,Calu-6 cancer cell viability (A^490 Absorbance),[2]; docetaxel 25 nM,0.219
same,Calu-6 cancer cell viability (A^490 Absorbance),[2]; docetaxel 50 nM,0.183
same,Calu-6 cancer cell viability (A^490 Absorbance),[2]; docetaxel 100 nM,0.174
same,Calu-6 cancer cell viability (A^490 Absorbance),[2]; docetaxel 200 nM,0.148
"CC(=O)O[C@H]1C(=O)[C@@]2(C)[C@H]([C@H](OC(=O)c3ccccc3)[C@]3(O)C[C@H](OC(=O)[C@H](O)[C@@H](NC(=O)c4ccccc4)c4ccccc4)C(C)=C1C3(C)C)[C@]1(OC(C)=O)CO[C@@H]1C[C@@H]2O [Paclitaxel, paclitaxel, reference compound]",SK-MES-1 cancer cell viability (A^490 Absorbance),[3]; paclitaxel 25 μM,0.655
same,SK-MES-1 cancer cell viability (A^490 Absorbance),[3]; paclitaxel 50 μM,0.627
same,SK-MES-1 cancer cell viability (A^490 Absorbance),[3]; paclitaxel 100 μM,0.42
"CCCC(=O)O [butyric acid/salts, butyric acid]","cytotoxic and cytodifferentiating potency compared with retinoic acid, 1, 25-dihydroxy vitamin D and cytosine arabinoside",[4],most potent cytotoxic and cytodifferentiating agent
same,clinical response,[5],partial and temporary remission
same,toxicity,"[6]; child with refractory acute myelogenous leukemia in relapse, 0.5 g/kg/day",without detectable toxic effects
same,toxicity,[6]; clinical trials with high dosages,no toxicity
same,adverse reaction in clinical follow up,"[6]; patient with acute myelogenous leukemia in relapse, 1.0 g/kg/day for 10 days and 1.5 g/kg/day for 6 days",no adverse reaction
same,toxicity,"[6]; patients with neuroblastoma, doses of up to 10 g/day",no clinically detectable toxicity
"Nc1ccn([C@@H]2O[C@H](CO)[C@@H](O)C2(F)F)c(=O)n1 [Gemcitabine, gemcitabine]",T24 cancer cell viability (A^490 Absorbance),[7]; gemcitabine 10 nM,0.48
same,T24 cancer cell viability (A^490 Absorbance),[7]; gemcitabine 50 nM,0.422
same,Calu-6 cancer cell viability (A^490 Absorbance),[2]; gemcitabine 25 nM,0.587
same,Calu-6 cancer cell viability (A^490 Absorbance),[2]; gemcitabine 50 nM,0.466
same,Calu-6 cancer cell viability (A^490 Absorbance),[2]; gemcitabine 100 nM,0.456
same,Calu-6 cancer cell viability (A^490 Absorbance),[2]; gemcitabine 200 nM,0.403
"N.N.[Cl][Pt][Cl] [Cisplatin, cisplatin, reference compound]",T24 cancer cell viability (A^490 Absorbance),[7]; cisplatin 5 μM,0.434
same,T24 cancer cell viability (A^490 Absorbance),[7]; cisplatin 10 μM,0.404
same,T24 cancer cell viability (A^490 Absorbance),[7]; cisplatin 20 μM,0.25
same,T24 cancer cell viability (A^490 Absorbance),[7]; cisplatin […],0.486
same,Calu-6 cancer cell viability (A^490 Absorbance),[2]; cisplatin 5 μM,0.557
same,Calu-6 cancer cell viability (A^490 Absorbance),[2]; cisplatin 10 μM,0.328
same,Calu-6 cancer cell viability (A^490 Absorbance),[2]; cisplatin 20 μM,0.238
same,Calu-6 cancer cell viability (A^490 Absorbance),[2]; cisplatin […],0.608
same,SK-MES-1 non-small cancer cell viability (A^490 Absorbance),[3]; cisplatin 10 μM,1.562
same,SK-MES-1 non-small cancer cell viability (A^490 Absorbance),[3]; cisplatin 20 μM,1.477
